Data as given in ChEMBL document CHEMBL2331106, “Discovery of 5-phenoxy-1,3-dimethyl-1H-pyrazole-4-carboxamides as potent agonists of TGR5 via sequential combinatorial libraries” (Bioorg Med Chem Lett, 2013).

Columns and labels:
[1] = target: T1, G-protein coupled bile acid receptor 1 (Homo sapiens, UniProt Q8TDU6); assay: Agonist activity at doxycycline-promoter regulated overexpressed human TGR5 receptor in CHO cells assessed as elevation of cAMP level by induced-cAMP assay; format: functional, cell-based
T1 sequence (Q8TDU6 whole entry): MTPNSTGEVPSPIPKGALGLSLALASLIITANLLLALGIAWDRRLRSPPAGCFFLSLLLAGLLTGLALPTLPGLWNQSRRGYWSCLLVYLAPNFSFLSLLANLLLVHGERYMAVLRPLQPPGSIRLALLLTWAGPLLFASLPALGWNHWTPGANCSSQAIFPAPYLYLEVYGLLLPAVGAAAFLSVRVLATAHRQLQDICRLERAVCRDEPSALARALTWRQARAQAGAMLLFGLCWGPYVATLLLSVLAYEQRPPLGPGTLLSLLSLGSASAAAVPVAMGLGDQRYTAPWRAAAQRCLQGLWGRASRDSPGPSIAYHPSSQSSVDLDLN

[2] = Distribution coefficient, log D of the compound by shake flask method; format: physicochemical; conditions: octanol/water
[3] = target: T1, G-protein coupled bile acid receptor 1; assay: Agonist activity at human TGR5 receptor in CHO cells assessed as elevation of cAMP level by uninduced cAMP detection method in absence of doxycycline; format: functional, cell-based
[4] = Intrinsic clearance in human liver microsomes; format: ADME, Microsome; conditions: read-out: CLH
Homo sapiens = species: Homo sapiens; assay: Ex vivo activation of TGR5 in human PBMC assessed as elevation of cAMP level by cAMP assay

EC50 [1] [µM]	logD [2]	EC50 [3] [µM]	microsomal CLint [4] [µL/min/mg]	EC50 (Homo sapiens) [µM]	Structure (SMILES)
> 10	1.4	> 10			Cc1nn(C)c(Oc2cccnc2)c1C(=O)N1CCCCC1c1cccnc1 (centres undefined)
	3.6		> 320		Cc1ccc(N(C)C(=O)c2c(-c3ccccc3Cl)noc2C)cc1Cl
				0.379	Cc1nn(C)c(Oc2cccc(Cl)c2Cl)c1C(=O)N1CCCC[C@@H]1c1cccnc1
0.92	2.4	> 10			Cc1nn(C)c(Oc2ccccc2)c1C(=O)N1CCCCC1c1cccnc1 (centres undefined)
